Some results are limits rather than exact numbers.

In the assay the target is T1, c-Mer (Homo sapiens, UniProt Q12866).
T1 sequence (Q12866 21-999): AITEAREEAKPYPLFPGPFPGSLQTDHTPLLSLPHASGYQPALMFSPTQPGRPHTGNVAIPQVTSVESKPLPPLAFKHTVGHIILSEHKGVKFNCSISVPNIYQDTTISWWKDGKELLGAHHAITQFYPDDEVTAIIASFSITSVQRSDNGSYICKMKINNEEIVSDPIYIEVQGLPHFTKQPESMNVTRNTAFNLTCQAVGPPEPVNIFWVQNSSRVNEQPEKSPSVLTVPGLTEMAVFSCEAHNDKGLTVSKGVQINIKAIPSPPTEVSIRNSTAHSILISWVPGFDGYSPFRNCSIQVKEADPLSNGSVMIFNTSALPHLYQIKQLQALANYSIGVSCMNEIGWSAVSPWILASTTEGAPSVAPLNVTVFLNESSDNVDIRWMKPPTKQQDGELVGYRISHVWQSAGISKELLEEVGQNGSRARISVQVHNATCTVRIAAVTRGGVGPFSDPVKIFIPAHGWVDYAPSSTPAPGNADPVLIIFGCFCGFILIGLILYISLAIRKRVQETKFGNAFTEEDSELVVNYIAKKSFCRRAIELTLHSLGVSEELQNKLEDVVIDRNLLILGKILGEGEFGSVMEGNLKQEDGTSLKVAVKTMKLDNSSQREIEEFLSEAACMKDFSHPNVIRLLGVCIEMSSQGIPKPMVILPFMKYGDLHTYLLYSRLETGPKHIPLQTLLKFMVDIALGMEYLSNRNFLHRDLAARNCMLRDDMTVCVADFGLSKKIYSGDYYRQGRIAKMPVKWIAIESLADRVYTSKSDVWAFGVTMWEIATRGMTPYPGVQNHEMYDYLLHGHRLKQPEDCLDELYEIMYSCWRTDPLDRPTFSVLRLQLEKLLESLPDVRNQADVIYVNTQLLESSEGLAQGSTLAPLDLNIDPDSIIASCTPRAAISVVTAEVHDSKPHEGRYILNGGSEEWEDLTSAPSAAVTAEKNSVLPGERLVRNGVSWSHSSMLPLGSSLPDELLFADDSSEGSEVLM
Kind of assay: HotSpot kinase assay: c-Mer. In kind it is biochemical. The conditions noted are these: 100 nM compound, read-out: % Enzyme Inhibition @ 100 nM c-MER. On the procedure:
Kinase assays were performed using additional compounds against a panel of 4 kinases: AXL; c-Met; c-Mer; and Trk C. Each compound was tested at a concentration of […] in single duplicate mode against the 4 kinases. Compounds were prepared as 10 mM stock solutions in DMSO prior to use in the assay. […] IC50 values and curve fits were obtained using Prism (GraphPad Software).
The screening was performed using the “HotSpot” assay platform. The assay measures the conversion of a peptide substrate to ^33P-labelled phosphorylated product. Briefly, specific kinase/substrate pairs along with required cofactors were prepared in reaction buffer. Specifically, the substrate was prepared in reaction buffer (20 mM Hepes, pH 7.5; 10 mM MgCl2; 1 mM EGTA; 0.02% Brij35; 0.02 mg/mL BSA; 0.1 mM Na3VO4; 2 mM DTT; 1% DMSO), followed by delivery of any required cofactor to the resulting substrate solution. The corresponding kinase was delivered into the substrate solution and the reaction mixture was mixed gently. Compound was delivered into the reaction mixture, followed 15-20 minutes later by addition of a mixture of ATP (Sigma, St. Louis Mo.) and ^33P ATP (specific activity 0.01 μCi/μL final; Perkin Elmer, Waltham, Mass.) to a final concentration of 10 μM-30 μM to initiate the reaction. […] The percent of enzyme inhibition was calculated based on the percent of remaining kinase activity.

For `CC(C)c1cc(Nc2nc(N3CCCC3C(=O)N(C)C)nc3c2CCC3)n[nH]1` (single isomer, unassigned) [Compound 20b, 1-(4-(5-isopropyl-1H-pyrazol-3-ylamino)-6,7-dihydro-5H-cyclopenta[d]pyrimidin-2-yl)-N,N-dimethylpyrrolidine-2-carboxamide], the inhibition (in general, the percentage by which the read-out fell short of the control) at 0.1 µM is < 39%.

For the origin of these results see US9499519B2, “Fused pyrimidine compounds and use thereof” (Medivation Technologies, Inc., priority 2012, dated 2016).
